Where two headings read alike, the source gives them in different places.
Experiments:
in vivo [1] = conditions: mouse, po
in vivo [2] = conditions: rat, po
Protocol: Gastrointestinal ulcer formation action, which is a principal side effect of an acid anti-inflammatory drug, was investigated according to the method of Okabe et al [cf. […] The compounds of the present invention, IM, DF and acemethacin were suspended in 5% Tween-80 solution and administered orally 1 ml/100 g body weight to the rats, respectively. At 6 hrs after the administration, the state of glandstomach was observed by means of a dissecting microscope whether the ulcer having a diameter more than 1 mm was generated or not.

[3] = Rate of hydrolysis in rat plasma; format: in vitro ADME; conditions: in 1 ml of plasma rat (37° C., incubation for 1 hr)
Protocol: **in 1 ml of plasma rat (37° C., incubation for 1 hr)

carrageenan edema = test: inhibition test of carrageenan edema employing a foot-pad edema method; format: in vivo, male Wister rats; conditions: for ED50: Rattus norvegicus, read-out: ED50 for inhibition for carrageenan edema; for anti-inflammatory activity compared with DF: relative to DF
From the text: Anti-inflammatory action was investigated according to the method of Winter et al [cf. Pro. Soc. Exp. Biol. Med., 111, 544 (1962)] by the inhibition test of carrageenan edema employing a foot-pad edema method using carrageenan as an irritating agent and male Wister rats weighing 130 to 170 g.

ultraviolet erythema = test: inhibition action for ultraviolet erythema; format: in vivo, male Hartley guinea pigs; set-up: 2 hs after the irradiation, Average ± standard error / 3 hs after the irradiation, Average ± standard error / 5 hs after the irradiation, Average ± standard error: scale not given here; 2 hs after the irradiation, Rate for inhibition / 3 hs after the irradiation, Rate for inhibition / 5 hs after the irradiation, Rate for inhibition: unit not given here; conditions: for 2 hs after the irradiation, Average ± standard error / 2 hs after the irradiation, Rate for inhibition: 2 hs after irradiation; for 3 hs after the irradiation, Average ± standard error / 3 hs after the irradiation, Rate for inhibition: 3 hs after irradiation; for 5 hs after the irradiation, Average ± standard error / 5 hs after the irradiation, Rate for inhibition: 5 hs after irradiation
Protocol: With respect to Compounds 1 to 3, 15 and 21 which are especially useful as an anti-inflammatory drug, IM and DF, inhibition action for ultraviolet erythema was investigated according to the method of Adames et al [cf. Nature, London, 181, 773 (1958)] using guinea pigs as follows: Male Hartley guinea pigs weighing 250 to 350 g were shaved at their sides the day before and two hrs before the ultraviolet irradiation. To the guinea pigs were administered orally Compounds 1 to 3, 15 and 21, IM and DF in amounts as described in Table 2, respectively. To the control group was administered orally only Tween-80. At 1 hr after the time of administration, the guinea pigs were irradiated at their shaved sides by ultraviolet beam for 40 seconds.
The reaction of the ultraviolet erythema was evaluated at 2 hrs, 3 hrs and 5 hrs after irradiation according to the method of Winder et al [cf. Arch. Int. Pharmacodyn., 116, 261 (1958)]. […] Compounds 1 and 2 show a duration of the pharmacological effect over 5 hrs, contrary to that IM has a duration of 2 hrs.

thiopental-induced sleep = test: potentiating effect on thiopental-induced sleep in mice; format: in vivo, male ddY mice; conditions: mice, oral
Protocol: (§1) Effect on central nervous system, which is another side effect of IM, was investigated according to the potentiating effect on thiopental-induced sleep in mice as follows: Male ddY mice weighing 20 to 24 g were subjected to fasting for 15 hrs. […] At 30 mins after the administration, thiopental sodium was injected intravenously to each of the mice in an amount of 35 mg/l kg body weight, and then, the sleeping time was observed. When the sleeping time of the mice to which the Test Compound was administered was longer than 2 times that of the control to which only Tween-80 was administered, the given Test Compound was judged to be effective on thiopental-induced sleep potentiating effect.

[4] = as above; format: in vivo, male ddY mice; conditions: mouse, in vivo, po
Protocol: as §1

[5] = male Wister rats, foot-pad edema

| SMILES | LD50 (in vivo [1]) [mg/kg] | TD50 at 6 h (in vivo [2]) [mg/kg] | metabolised at 1 h [3] [%] | ED50 (carrageenan edema; [5]) [mg/kg] | 2 hs after the irradiation, Average ± standard error (ultraviolet erythema; 3 mg/kg orally, guinea pigs) | 2 hs after the irradiation, Rate for inhibition (ultraviolet erythema; 3 mg/kg orally, guinea pigs) | 3 hs after the irradiation, Average ± standard error (ultraviolet erythema; 3 mg/kg orally, guinea pigs) | 3 hs after the irradiation, Rate for inhibition (ultraviolet erythema; 3 mg/kg orally, guinea pigs) | 5 hs after the irradiation, Average ± standard error (ultraviolet erythema; 3 mg/kg orally, guinea pigs) | 5 hs after the irradiation, Rate for inhibition (ultraviolet erythema; 3 mg/kg orally, guinea pigs) | 2 hs after the irradiation, Average ± standard error (ultraviolet erythema; 10 mg/kg orally, guinea pigs) | 2 hs after the irradiation, Rate for inhibition (ultraviolet erythema; 10 mg/kg orally, guinea pigs) | 3 hs after the irradiation, Average ± standard error (ultraviolet erythema; 10 mg/kg orally, guinea pigs) | 3 hs after the irradiation, Rate for inhibition (ultraviolet erythema; 10 mg/kg orally, guinea pigs) | 5 hs after the irradiation, Average ± standard error (ultraviolet erythema; 10 mg/kg orally, guinea pigs) | 5 hs after the irradiation, Rate for inhibition (ultraviolet erythema; 10 mg/kg orally, guinea pigs) | also measured |
| --- | --- | --- | --- | --- | --- | --- | --- | --- | --- | --- | --- | --- | --- | --- | --- | --- | --- |
| CC(C)=CC(=O)OCCOC(=O)Cc1ccccc1Nc1c(Cl)cccc1Cl [Compound 17, 2-(3,3-Dimethylacryloyloxy)ethyl-2-(2,6-dichloroanilino)phenylacetate] | 400 | 30 | 78.4 | 30 | – | – | – | – | – | – | – | – | – | – | – | – | – |
| CC(=O)OC(C)OC(=O)Cc1ccccc1Nc1c(Cl)cccc1Cl (stereo not drawn) [Compound 18, 1-(Acetoxy)ethyl-2-(2,6-dichloroanilino)-phenylacetate] | 295 | 30 | 96.1 | 20 | – | – | – | – | – | – | – | – | – | – | – | – | anti-inflammatory activity compared with DF (carrageenan edema): almost equal anti-inflammatory activity to DF |
| C/C=C/C(=O)OC(C)OC(=O)Cc1ccccc1Nc1c(Cl)cccc1Cl (stereo not drawn) [Compound 19, 1-(Crotonoyloxy)ethyl-2-(2,6-dichloroanilino)phenylacetate] | 380 | 30 | 86 | < 30 | – | – | – | – | – | – | – | – | – | – | – | – | – |
| CC(C)=CC(=O)OC(C)OC(=O)Cc1ccccc1Nc1c(Cl)cccc1Cl (stereo not drawn) [Compound 20, 1-(3,3-Dimethylacryloyloxy)ethyl-2-(2,6-dichloroanilino)phenylacetate] | 460 | 30 | 80.3 | 20 | – | – | – | – | – | – | – | – | – | – | – | – | anti-inflammatory activity compared with DF (carrageenan edema): almost equal anti-inflammatory activity to DF |
| CC=CC=CC(=O)OC(C)OC(=O)Cc1ccccc1Nc1c(Cl)cccc1Cl (stereo not drawn) [Compound 21, 1-(2,4-Hexadienoyloxy)ethyl-2-(2,6-dichloroanilino)phenylacetate] | 790 | > 80 | 78.2 | 30 | 1.33 ± 0.211 | 50.2 | 3.00 ± 0 | 0 | 3.00 ± 0 | 0 | 1.50 ± 0.224 | 43.8 | 2.50 ± 0.224 | 11.7 | 2.50 ± 0.224 | 11.7 | inhibition effect for ultraviolet erythema compared with IM and DF (ultraviolet erythema; relative to IM and DF): equal inhibition effect for ultraviolet erythema to that of IM and DF |
| O=C(O)Cc1ccccc1Nc1c(Cl)cccc1Cl [DF, diclofenac, reference compound] | – | – | – | – | 1.17 ± 0.307 | 56.2 | 2.17 ± 0.401 | 23.3 | 2.67 ± 0.211 | 5.7 | 1.17 ± 0.307 | 56.2 | 2.50 ± 0.342 | 11.7 | 2.83 ± 0.167 | 0 | potentiating effect on thiopental-induced sleep (in words) (thiopental-induced sleep): did not show the potentiating effect; ED50 (carrageenan edema): 15 mg/kg |
| COc1ccc2c(c1)c(CC(=O)O)c(C)n2C(=O)c1ccc(Cl)cc1 [IM, indomethacin, reference compound] | 31.5 | – | – | – | 2.17 ± 0.307 | 18.7 | 2.5 ± 0.224 | 11.7 | 2.83 ± 0.167 | 0 | 1.33 ± 0.217 | 50.2 | 2.83 ± 0.167 | 0 | 3.0 ± 0 | 0 | ED50 [4]: 205 mg/kg; TD50 at 6 h (in vivo [2]; in vivo): 8 mg/kg; duration of the pharmacological effect (ultraviolet erythema; ultraviolet erythema, guinea pigs, oral): 2 hrs; ED50 (carrageenan edema): 5.5 mg/kg |

— US4603217A, “Ester substituted alkyl-2-(2,6-dichloroanilino)phenyl acetates” (priority 1983, dated 1986)
